The supplement of paper PMC10733146

How the values were obtained:
Assay in all cases: viability relative to DMSO control (fraction); higher = less drug effect (more viable cells)
Conditions in all cases: 48 h
[1] = test system: primary AML patient cells (S002)
Method in brief: (§1)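 Using 384-well plates with compounds already plated at five concentrations, one well per concentration, 4 × 10^4 primary mononuclear tumour cells were added per well. Cells were Ficoll-isolated from blood or bone marrow or came from processed lymph node, fresh or cryopreserved. They were kept for 48 h at 37 °C and 5% CO2 in RPMI-1640 supplemented with penicillin/streptomycin, L-glutamine and human serum, and viability was read as CellTiter-Glo luminescence relative to the median of 16 inner DMSO wells.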

[2] = test system: primary AML patient cells (S006)
Method in brief: as §1

[3] = test system: primary AML patient cells (S011)
Method in brief: as §1

[4] = test system: primary AML patient cells (S012)
Method in brief: as §1

[5] = test system: primary AML patient cells (S017)
Method in brief: as §1

[6] = test system: primary AML patient cells (S019)
Method in brief: as §1

[7] = test system: primary AML patient cells (S021)
Method in brief: as §1

[8] = test system: primary AML patient cells (S025)
Method in brief: as §1

[9] = test system: primary AML patient cells (S037)
Method in brief: as §1

[10] = test system: primary AML patient cells (S081)
Method in brief: as §1

[11] = test system: primary AML patient cells (S085)
Method in brief: as §1

[12] = test system: primary AML patient cells (S089)
Method in brief: as §1

[13] = test system: primary AML patient cells (S091)
Method in brief: as §1

[14] = test system: primary CLL patient cells (S043)
Method in brief: as §1

CNC(=O)c1cc(Oc2ccc(NC(=O)Nc3ccc(Cl)c(C(F)(F)F)c3)cc2)ccn1 [Sorafenib]
viability ([1]; 0.024 µM): 0.941 | viability ([1]; 0.12 µM): 1.07 | viability ([1]; 0.6 µM): 1.09 | viability ([1]; 3 µM): 1.29 | viability ([1]; 15 µM): 0.601 | viability ([2]; 0.024 µM): 0.709 | viability ([2]; 0.12 µM): 0.508 | viability ([2]; 0.6 µM): 0.413 | viability ([2]; 3 µM): 0.423 | viability ([2]; 15 µM): 0.378 | viability ([3]; 0.024 µM): 0.966 | viability ([3]; 0.12 µM): 1.02 | viability ([3]; 0.6 µM): 0.972 | viability ([3]; 3 µM): 0.875 | viability ([3]; 15 µM): 0.715 | viability ([4]; 0.024 µM): 0.958 | viability ([4]; 0.12 µM): 0.991 | viability ([4]; 0.6 µM): 1.05 | viability ([4]; 3 µM): 1.01 | viability ([4]; 15 µM): 1.09 | viability ([5]; 0.024 µM): 0.955 | viability ([5]; 0.12 µM): 0.988 | viability ([5]; 0.6 µM): 0.935 | viability ([5]; 3 µM): 1.04 | viability ([5]; 15 µM): 0.927 | viability ([6]; 0.024 µM): 0.833 | viability ([6]; 0.12 µM): 1.18 | viability ([6]; 0.6 µM): 0.846 | viability ([6]; 3 µM): 1.11 | viability ([6]; 15 µM): 0.835 | viability ([7]; 0.024 µM): 0.995 | viability ([7]; 0.12 µM): 1.09 | viability ([7]; 0.6 µM): 1.07 | viability ([7]; 3 µM): 1.12 | viability ([7]; 15 µM): 0.888 | viability ([8]; 0.024 µM): 0.988 | viability ([8]; 0.12 µM): 1.02 | viability ([8]; 0.6 µM): 1.06 | viability ([8]; 3 µM): 1.13 | viability ([8]; 15 µM): 0.813 | viability ([9]; 0.024 µM): 0.961 | viability ([9]; 0.12 µM): 1.06 | viability ([9]; 0.6 µM): 1.05 | viability ([9]; 3 µM): 1.05 | viability ([9]; 15 µM): 1.09 | viability ([10]; 0.024 µM): 0.918 | viability ([10]; 0.12 µM): 0.958 | viability ([10]; 0.6 µM): 1.03 | viability ([10]; 3 µM): 0.99 | viability ([10]; 15 µM): 1.06 | viability ([11]; 0.024 µM): 1.09 | viability ([11]; 0.12 µM): 1.06 | viability ([11]; 0.6 µM): 0.916 | viability ([11]; 3 µM): 1.12 | viability ([11]; 15 µM): 1.03 | viability ([12]; 0.024 µM): 0.847 | viability ([12]; 0.12 µM): 0.645 | viability ([12]; 0.6 µM): 0.822 | viability ([12]; 3 µM): 0.973 | viability ([12]; 15 µM): 0.587 | viability ([13]; 0.024 µM): 0.929 | viability ([13]; 0.12 µM): 1.13 | viability ([13]; 0.6 µM): 1.34 | viability ([13]; 3 µM): 1.98 | viability ([13]; 15 µM): 1.46 | viability ([14]; 0.024 µM): 0.938 | viability ([14]; 0.12 µM): 1.05 | viability ([14]; 0.6 µM): 0.94 | viability ([14]; 3 µM): 1.08 | viability ([14]; 15 µM): 0.858
